The target of one test is T1, Human recombinant MMP-2 (Homo sapiens, UniProt P08253).
T1 construct: made in house; host or cells: MMP-2-transfected p2AHT2 cells
T1 sequence (P08253 110-660): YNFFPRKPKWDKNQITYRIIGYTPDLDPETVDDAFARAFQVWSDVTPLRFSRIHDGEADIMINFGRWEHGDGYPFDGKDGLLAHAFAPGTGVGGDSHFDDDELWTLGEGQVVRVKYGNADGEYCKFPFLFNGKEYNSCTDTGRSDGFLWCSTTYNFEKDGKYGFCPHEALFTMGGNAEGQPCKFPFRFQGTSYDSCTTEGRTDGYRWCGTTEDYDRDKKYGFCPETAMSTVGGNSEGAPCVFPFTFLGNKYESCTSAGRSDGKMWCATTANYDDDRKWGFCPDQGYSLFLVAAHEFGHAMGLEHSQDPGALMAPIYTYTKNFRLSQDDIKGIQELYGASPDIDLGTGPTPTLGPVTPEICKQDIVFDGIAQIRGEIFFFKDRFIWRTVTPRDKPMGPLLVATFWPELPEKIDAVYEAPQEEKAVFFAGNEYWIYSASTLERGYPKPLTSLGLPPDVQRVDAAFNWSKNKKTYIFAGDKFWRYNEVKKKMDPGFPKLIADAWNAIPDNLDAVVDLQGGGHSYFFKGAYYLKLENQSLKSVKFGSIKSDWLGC
Briefly: In vitro MMP inhibition, IC50 determination (fluorogenic substrate I). The format is biochemical. The conditions noted are these: value outside parentheses (Ki in parenthesis). Put shortly:
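APMA- or trypsin-activated recombinant MMP-2 was incubated at room temperature with serial inhibitor dilutions in Tris buffer pH 7.5 (100 mM NaCl, 10 mM CaCl2, 0.05% Brij), with DMSO from 1% stocks, and 4 μM substrate I. Cleavage was read by fluorescence at 328/415 nm; IC50 was taken from the loss of fluorescence versus inhibitor concentration.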

The target in another test is T2, Human recombinant MMP-13 (Homo sapiens, UniProt P45452).
T2 construct: made in house; host or cells: baculovirus / insect cells
The test is described as above. The test is classed as biochemical. The conditions noted are these: value outside parentheses (Ki in parenthesis). An outline of the steps: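 Fluorescence at 415 nm (excitation 328 nm) reports Gly-Leu cleavage of 4 μM quenched methoxycoumarin peptide substrate I. Human recombinant MMP-13, activated by trypsin or APMA, was incubated at room temperature with varied inhibitor concentrations in pH 7.5 Tris/NaCl/CaCl2 buffer; IC50 derived from reduced fluorescence.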

In patent US20040024024A1, “Aromatic sulfone hydroxamates and their use as protease inhibitors” (priority 2001, published 2004) one finds IC50 data, which are given here for 21 compounds.

Where only a bound is given, the exact number is not on record here.

Usually IC50 stands for the concentration needed to halve the response being measured.

For the compound `O=C(NCCCOc1ccc(S(=O)(=O)C2(C(=O)NO)CCOCC2)cc1)C1CCCC1` [Example 400], the IC50 at Human recombinant MMP-2 worked out at 326 nM; at Human recombinant MMP-13, 9 nM.
The matching figures for `CCCC(C)(C)C(=O)NCCCOc1ccc(S(=O)(=O)C2(C(=O)NO)CCOCC2)cc1` [Example 402]: 454 nM and 30 nM.
For `CC(C)(C(=O)NCCCOc1ccc(S(=O)(=O)C2(C(=O)NO)CCOCC2)cc1)c1ccccc1` [Example 404], in that order: 254 nM and 15 nM.
Consider `O=C(NO)C1(S(=O)(=O)c2ccc(OCCCSc3nc4c(Cl)cc(Cl)cc4o3)cc2)CCOCC1` [Example 407], for which the IC50 worked out at 285 nM on Human recombinant MMP-2 and 25 nM on Human recombinant MMP-13.
On to `O=C(NO)C1(S(=O)(=O)c2ccc(OCCCN3CCCc4ccccc43)cc2)CCOCC1` [Example 412], for which the IC50 on Human recombinant MMP-2 is 313 nM; at Human recombinant MMP-13 it was 41 nM.
`O=C(NO)C1(S(=O)(=O)c2ccc(OCCCCN3CCCc4ccccc43)cc2)CCOCC1` [Example 413]: the IC50 on Human recombinant MMP-2 was 61 nM; on Human recombinant MMP-13, 8 nM.
Take `O=C(NO)C1(S(=O)(=O)c2ccc(OCCCCCN3CCCc4ccccc43)cc2)CCOCC1` [Example 414]: the IC50 is 37 nM at Human recombinant MMP-2 and 14 nM at Human recombinant MMP-13.
Turning to `COc1ccc2c(c1)CCCN2CCCCCOc1ccc(S(=O)(=O)C2(C(=O)NO)CCOCC2)cc1` [Example 416], the IC50 stood at 17 nM at Human recombinant MMP-2 and 8.6 nM at Human recombinant MMP-13.
On to `O=C(NCCCOc1ccc(S(=O)(=O)C2(C(=O)NO)CCOCC2)cc1)c1ccccc1` [Example 417], for which the results for the IC50 at Human recombinant MMP-2 and at Human recombinant MMP-13 were 315 nM and 2.6 nM, respectively.
For `COc1ccc(S(=O)(=O)NCCCOc2ccc(S(=O)(=O)C3(C(=O)NO)CCOCC3)cc2)cc1` [Example 419], the IC50 at Human recombinant MMP-2 worked out at 120 nM; on Human recombinant MMP-13, 4 nM.
As for `COc1ccc(C(=O)N2CCCC(COc3ccc(S(=O)(=O)C4(C(=O)NO)CCOCC4)cc3)C2)cc1` (stereo not drawn) [Example 421], the IC50 on Human recombinant MMP-2 amounted to 649 nM; on Human recombinant MMP-13, 256 nM.
As for `COc1ccc(C(=O)N2CC[C@@H](Oc3ccc(S(=O)(=O)C4(C(=O)NO)CCOCC4)cc3)C2)cc1` [Example 422], the IC50 on Human recombinant MMP-2 was found to be 7200 nM; on Human recombinant MMP-13 it was 1480 nM.
For the compound `O=C(c1ccc(OC(F)(F)F)cc1)N1CC[C@@H](Oc2ccc(S(=O)(=O)C3(C(=O)NO)CCOCC3)cc2)C1` [Example 423], the IC50 came to 9000 nM on Human recombinant MMP-2 and 1590 nM on Human recombinant MMP-13.
On to `O=C(c1cccc(C(F)(F)F)c1)N1CC[C@@H](Oc2ccc(S(=O)(=O)C3(C(=O)NO)CCOCC3)cc2)C1` [Example 424], for which the IC50 on Human recombinant MMP-2 came to 485 nM; on Human recombinant MMP-13, 192 nM.
Consider `O=C(C1CCCCC1)N1CC[C@@H](Oc2ccc(S(=O)(=O)C3(C(=O)NO)CCOCC3)cc2)C1` [Example 425], for which the IC50 on Human recombinant MMP-2 was greater than 10000 nM; at Human recombinant MMP-13 it was 3310 nM.
On to `COc1ccc(C(=O)N2CC[C@@H](Oc3ccc(S(=O)(=O)C4(C(=O)NO)CCOCC4)cc3)C2)cc1OC` [Example 426], for which the IC50 was greater than 10000 nM at Human recombinant MMP-2 and 5150 nM at Human recombinant MMP-13.
`CC(=O)N1CC[C@@H](Oc2ccc(S(=O)(=O)C3(C(=O)NO)CCOCC3)cc2)C1` [Example 427]: the IC50 was determined as 251 nM at Human recombinant MMP-2 and 114 nM at Human recombinant MMP-13.
As to `COc1ccc(S(=O)(=O)CCCCOc2ccc(S(=O)(=O)C3(C(=O)NO)CCOCC3)cc2)cc1` [Example 428], the IC50 at Human recombinant MMP-2 turned out to be 20 nM; on Human recombinant MMP-13, 1.4 nM.
As for `COc1ccc(SCC(C)(C)COc2ccc(S(=O)(=O)C3(C(=O)NO)CCOCC3)cc2)cc1` [Example 430], the IC50 on Human recombinant MMP-2 was 2700 nM; at Human recombinant MMP-13, 195 nM.
The matching figures for `COc1ccc(S(=O)(=O)C[C@@H](C)COc2ccc(S(=O)(=O)C3(C(=O)NO)CCOCC3)cc2)cc1` [Example 431]: 115 nM and 4 nM.
Take `COc1ccc(SC[C@@H](C)COc2ccc(S(=O)(=O)C3(C(=O)NO)CCOCC3)cc2)cc1` [Example 432]: the figures for the IC50 at Human recombinant MMP-2 and on Human recombinant MMP-13 were 7 nM and 1.5 nM, respectively.
